Measured values: publication PMC11514314, “The aquastatin biosynthetic gene cluster encodes a versatile polyketide synthase capable of synthesising heteromeric depsides with diverse alkyl side chains” (Chemical Science, 2024)
Values after ≈ are worked out from the molar mass of the structure shown. Like-named read-outs stand apart in the source and are kept apart here.

Columns and labels:
[1] = tested on: fatty acid synthase II (FAS II); conditions: cited from earlier work
S. aureus (ATCC 25923) = assay: Antibacterial ProTOX bioassay, S. aureus; format: cell-based; conditions: Staphylococcus aureus, ATCC25923; S. aureus ATCC 25923, 48 h, 28 °C; read-out: Minimum inhibitory concentration (MIC) S. aureus
Procedure: (§1) 12. Bioactivity screening.
(§2) Purified metabolites were dissolved in DMSO to create stock solutions of 10,000 µg/mL. An aliquot from each stock solution was transferred to the first well of Rows B to G on a 96-well microtitre plate and then serially diluted two-fold with DMSO across the 12 wells of the plate to achieve a 2,048-fold concentration gradient. Bioassay medium was added to an aliquot of each diluted solution to achieve a 100-fold dilution in the final bioassay. This […]
(§3) 0.1 µg/mL in 2% DMSO for yeasts. Row A served as a control with no test compound (indicating no inhibition), and Row H was left uninoculated (serving as a control for complete inhibition).
(§4) B. subtilis (ATCC 6633), S. aureus (ATCC 25923) and MRSA (ATCC 33592) were used as indicator species for antibacterial activity, employing the ProTOX bioassay platform. A bacterial suspension (50 mL in a 250 mL flask) was prepared in nutrient media by cultivating it for 24 h at 250 rpm and 28 °C. The suspension was diluted to an absorbance of 0.01 absorbance units per mL, and 10 µL aliquots were added to the wells of a 96-well microtitre plate containing the test compounds dispersed in 190 µL of nutrient broth (Amyl) with 10 µL resazurin (12.5 µg/mL). The plates were incubated at 28 °C for 48 h, during which the positive control wells changed colour from blue to light pink. Tetracycline was employed as a control for B. subtilis, while ampicillin was used for S. aureus and MRSA. MIC endpoints were determined visually. Absorbance was measured using a Multiskan Skyhigh Microplate Spectrophotometer (Thermo Fisher Scientific) at 605 nm.

[2] = tested on: methicillin-resistant S. aureus (MRSA); parameters: method as in PMID 19952429; conditions: cited from earlier work
MRSA (ATCC 33592) = assay: Antibacterial ProTOX bioassay, MRSA; format: cell-based, methicillin-resistant S. aureus; conditions: MRSA ATCC 33592, 48 h, 28 °C; for MIC: Staphylococcus aureus, read-out: Minimum inhibitory concentration (MIC) MRSA
Procedure: as §1, §2, §3, §4

[3] = tested on: NFF (ATCC PCS-201) human neonatal foreskin fibroblast cells; assay: Cytotoxicity resazurin assay, NFF cells; format: cell-based; conditions: for IC50: Homo sapiens, 96 h, read-out: IC50 NFF
Procedure: as §1, §2
(§5) 0.1 µg/mL in 2% DMSO for yeasts. Row A served as a control with no test compound (indicating no inhibition), and Row H was left uninoculated (serving as a control for complete inhibition). […]
(§6) MIC endpoints were determined visually. Absorbance was measured using a Multiskan Skyhigh […]
as §6
(§7) NS-1 (ATCC TIB-18) mouse myeloma and NFF (ATCC PCS -201) human neonatal foreskin fibroblast cells were each inoculated in 96-well microtitre plates (190 µL) at 50,000 cells/mL in DMEM (Dulbecco's Modified Eagle Medium + 10% fetal bovine serum (FBS) + 1% penicillin/streptomycin (10,000 U/mL / 10,000 µg/mL, Life Technologies Cat. No. 15140122), together with resazurin (250 µg/mL; 10 µL) and incubated in 37 °C (5% CO2) incubator. The plates were incubated for 96 h during which time the positive control wells change colour from a blue to pink colour. The absorbance of each well was measured using Multiskan Skyhigh Microplate Spectrophotometer (Thermofisher Scientific) at 605 nm. Sparsomycin was used as a control. The IC50 values were determined using a sigmoidal dose-response model with variable slope in GraphPad Prism 8.

B. subtilis (ATCC 6633) = assay: Antibacterial ProTOX bioassay, B. subtilis; format: cell-based; conditions: Bacillus subtilis, ATCC6633; B. subtilis ATCC 6633, 48 h, 28 °C; read-out: Minimum inhibitory concentration (MIC) B. subtilis
Procedure: as §1, §2, §3, §4

[4] = tested on: Saccharomyces cerevisiae (ATCC 9763); assay: Antifungal EuTOX bioassay, S. cerevisiae; format: cell-based; conditions: S. cerevisiae ATCC 9763, 48 h; for MIC: Saccharomyces cerevisiae, ATCC9763, read-out: Minimum inhibitory concentration (MIC) S. cerevisiae
Procedure: as §1, §2, §5, §6
Saccharomyces cerevisiae (ATCC 9763) was used as indicator species for antifungal activity, employing the EuTOX bioassay platform. A yeast suspension (50 mL in a 250 mL flask) was prepared in 1% malt extract broth by cultivating it for 24 h at 250 rpm and 24 °C. The suspension was diluted to absorbances of 0.03 absorbance units per mL and 30 µL were added to the wells of a 96-well microtitre plate containing the test compounds dispersed in 100 µL of malt extract agar with bromocresol green (50 µg/mL). The plates were incubated at 28 °C for 48 h, during which the positive control wells changed colour from blue to yellow. Blasticidin S HCl was used

[5] = tested on: NS-1 (ATCC TIB-18) mouse myeloma cells; assay: Cytotoxicity resazurin assay, NS-1 cells; format: cell-based; conditions: for IC50: read-out: IC50 NS-1; for cytotoxicity against NS-1 cells (in words): mouse myeloma NS-1
Procedure: as §1, §2, §5, §6, §6, §7

[6] = tested on: Saccharomyces cerevisiae (ATCC 9763); conditions: previously reported; cited from earlier work
[7] = neonatal foreskin fibroblast NFF
[8] = NS1, mouse myeloma NS-1 ATCC TIB-18, 96 h

Row | Molecule | FAS II inhibitory activity [1] | MIC (S. aureus (ATCC 25923)) [µg/mL] | antibacterial activity against MRSA [2] | MIC (MRSA (ATCC 33592)) [µg/mL] | IC50 [3, 7] [µg/mL] | MIC (B. subtilis (ATCC 6633)) [µg/mL] | MIC [4] [µg/mL] | IC50 [5, 8] [µg/mL] | cytotoxicity against NFF cells (in words) [3] | cytotoxicity against NS-1 cells (in words) [5] | Minimum inhibitory concentration (MIC) MRSA (MRSA (ATCC 33592)) [µg/mL] | Minimum inhibitory concentration (MIC) S. cerevisiae [4] [µg/mL] | IC50 ([3]; Fibroblast) [µg/mL] | IC50 ([5]; Mus musculus, NS1, 96 h) [µg/mL] | antifungal activity against S. cerevisiae (in words) [6]
1 | CCCCCCCCCCCCCCCc1cc(O)cc(O)c1C(=O)Oc1cc(C)c(C(=O)O)c(O)c1 [1b, Aquastatin B] | do not demonstrate | > 100 | demonstrated antibacterial activity | > 50 | > 100 | 1.6 (≈ 3.11 µM) | > 200 | > 50 |  |  |  |  |  |  | 
2 | CCCCCCCCCCCCCCCc1cc(O[C@@H]2O[C@H](CO)[C@H](O)[C@H](O)[C@H]2O)cc(O)c1C(=O)OC [1c, aquastatin C] | do not demonstrate | > 100 |  | > 100 | > 100 | > 100 | > 200 | > 100 |  |  |  |  |  |  | 
3 | CCCCCCCCCCCCCCCc1cc(O[C@@H]2O[C@H](CO)[C@H](O)[C@H](O)[C@H]2O)cc(O)c1C(=O)O [1d, Aquastatin D] |  | 12.5 (≈ 23.7 µM) |  | 6.3 (≈ 12 µM) | > 100 | 3.1 (≈ 5.89 µM) | 3.1 (≈ 5.89 µM) | > 50 | did not exhibit cytotoxicity | did not exhibit cytotoxicity |  |  |  |  | 
4 | CCCCCCCCCCCCCCCc1cc(O)cc(O)c1C(=O)OC [1e, aquastatin E] |  | > 100 |  | > 100 | > 100 | > 100 | > 200 | > 100 |  |  |  |  |  |  | 
5 | CCCCCCCCCCCCCCCc1cc(O)cc(O)c1C(=O)O [1f, corticiolic acid] |  | 3.1 (≈ 8.5 µM) |  | 3.1 (≈ 8.5 µM) | > 100 | 0.8 (≈ 2.19 µM) | > 200 | 25 (≈ 68.6 µM) |  |  |  |  |  |  | 
6 | CCCCCCCCCCCCCc1cc(O[C@@H]2O[C@H](CO)[C@H](O)[C@H](O)[C@H]2O)cc(O)c1C(=O)Oc1cc(C)c(C(=O)O)c(O)c1 [3a, Ariestatin A] |  | 3.1 (≈ 4.78 µM) |  | 6.3 (≈ 9.71 µM) | > 100 | 1.6 (≈ 2.47 µM) | > 200 | > 100 |  |  |  |  |  |  | 
7 | CCCCCCCCCCCCCc1cc(O)cc(O)c1C(=O)Oc1cc(C)c(C(=O)O)c(O)c1 [3b, Ariestatin B] |  | 12.5 (≈ 25.7 µM) |  | 12.5 (≈ 25.7 µM) | > 50 | 1.6 (≈ 3.29 µM) | > 200 | > 50 |  |  |  |  |  |  | 
8 | CCCCCCCCCCCCCc1cc(O[C@@H]2O[C@H](CO)[C@H](O)[C@H](O)[C@H]2O)cc(O)c1C(=O)OC [3c, Ariestatin C] |  | > 100 |  | > 100 | > 100 | > 100 | > 200 | 0.2 (≈ 0.39 µM) | no activity was detected | cytotoxicity was observed |  |  |  |  | 
9 | CCCCCCCCCCCCCc1cc(O[C@@H]2O[C@H](CO)[C@H](O)[C@H](O)[C@H]2O)cc(O)c1C(=O)O [3d, Ariestatin D] |  | > 50 |  | > 50 | > 50 | 25 (≈ 50.1 µM) | 3.1 (≈ 6.22 µM) | > 50 | did not exhibit cytotoxicity | did not exhibit cytotoxicity |  |  |  |  | 
10 | CCCCCC/C=C\CCCCCCCc1cc(O[C@@H]2O[C@H](CO)[C@H](O)[C@H](O)[C@H]2O)cc(O)c1C(=O)Oc1cc(C)c(C(=O)O)c(O)c1 [4a, Capricostatin A] |  | 3.1 (≈ 4.59 µM) |  | 6.3 (≈ 9.34 µM) | > 100 | 1.6 (≈ 2.37 µM) | > 200 | > 100 |  |  |  |  |  |  | 
11 | CCCCCC/C=C\CCCCCCCc1cc(O)cc(O)c1C(=O)Oc1cc(C)c(C(=O)O)c(O)c1 [4b, Capricostatin B] |  | 12.5 (≈ 24.4 µM) |  | 12.5 (≈ 24.4 µM) | > 100 | 1.6 (≈ 3.12 µM) | > 200 | 0.05 (≈ 0.0975 µM) |  |  |  |  |  |  | 
12 | CCCCCC/C=C\CCCCCCCc1cc(O[C@@H]2O[C@H](CO)[C@H](O)[C@H](O)[C@H]2O)cc(O)c1C(=O)OC [4c, capricostatin C] |  | > 100 |  | > 100 | 6.3 (≈ 11.7 µM) | > 100 | > 200 | 6.3 (≈ 11.7 µM) |  |  |  |  |  |  | 
13 | CCCCCC/C=C\CCCCCCCc1cc(O[C@@H]2O[C@H](CO)[C@H](O)[C@H](O)[C@H]2O)cc(O)c1C(=O)O [4d, Capricostatin D] |  | > 50 |  | > 50 | > 100 | 25 (≈ 47.7 µM) | 3.1 (≈ 5.91 µM) | > 50 | did not exhibit cytotoxicity | did not exhibit cytotoxicity |  |  |  |  | 
14 | CCCCCC/C=C\CCCCCCCc1cc(O)cc(O)c1C(=O)O [4f, Capricostatin F] |  | 6.3 (≈ 17.4 µM) |  | 6.3 (≈ 17.4 µM) | > 100 | 0.8 (≈ 2.21 µM) | > 200 | 0.05 (≈ 0.138 µM) |  |  |  |  |  |  | 
15 | CC1(C)S[C@@H]2[C@H](NC(=O)[C@H](N)c3ccccc3)C(=O)N2[C@H]1C(=O)O [ampicillin, reference compound] |  | 3.1 (≈ 8.87 µM) |  | > 100 |  |  |  |  |  |  | >100 |  |  |  | 
16 | CN(CC[C@H](N)CC(=O)N[C@@H]1C=C[C@@H](n2ccc(N)nc2=O)O[C@H]1C(=O)O)C(=N)N.Cl [blasticidin S HCl, reference compound] |  |  |  |  |  |  |  |  |  |  |  | 3.1 |  |  | 
17 | Cc1cc(O)cc(O)c1C(=O)O [compound 5, orsellinic acid] |  | > 100 |  | > 100 | > 100 | > 100 | > 200 | > 100 |  |  |  |  |  |  | 
18 | CCCCCCCCCCCCCCCc1cc(O)cc(O)c1 [compound 6, adipostatin] |  | > 100 |  | 25 (≈ 78 µM) | 6.3 (≈ 19.7 µM) | > 100 | > 200 | 6.3 (≈ 19.7 µM) |  |  |  |  |  |  | 
19 | CSC[S@+]([O-])C[C@H](CO)NC(=O)/C=C/c1c(C)[nH]c(=O)[nH]c1=O [sparsomycin, reference compound] |  |  |  |  |  |  |  |  |  |  |  |  | 1.7 (≈ 4.7 µM) | 1.7 (≈ 4.7 µM) | 
20 | CN(C)[C@@H]1C(O)=C(C(N)=O)C(=O)[C@@]2(O)C(O)=C3C(=O)c4c(O)cccc4[C@@](C)(O)[C@H]3C[C@@H]12 [tetracycline, reference compound] |  |  |  |  |  | 6.3 (≈ 14.2 µM) |  |  |  |  |  |  |  |  | 
21 | geministatin D |  |  |  |  |  |  |  |  |  |  |  |  |  |  | displayed antifungal activity
